Test results taken from patent publication US20040072907A1, “Antipicornaviral compounds, compositions containing them, and methods for their use” (priority 1997, published 2004).
Read-outs that look alike come from different tables or passages of the source.

How the values were obtained:
[1] = test system: HI-HeLa cells; experiment: Cytotoxicity in mock-infected HI-HeLa cells (XTT, antirhinoviral assay); type: cell-based
Experimental: (§1) In the Cell Protection Assay, the ability of compounds to protect cells against HRV infection was measured by the XTT dye reduction method. This method is described in Weislow, O. S., Kiser, R., Fine, D. L., Bader, J., Shoemaker, R. H., Boyd, M. R., J. Natl. Cancer Inst. 1989, 81, 577-586, the disclosure of which is incorporated herein by reference.
(§2) Infected or mock-infected cells were resuspended at 8×10^5 cells per mL and incubated with appropriate concentrations of compounds of formula I. Two days later, XTT/PMS was added to test plates, and the amount of formazan produced was quantified spectrophotometrically at 450/650 nm. […] The therapeutic index (TI) was calculated by dividing the CC50 by the EC50.
HRV stocks were propagated, and viral assays were performed in HI-HeLa cells (ATCC). Cells were grown in Minimal Essential Medium, available from Life Technologies, with 10% fetal bovine serum.

[2] = test system: HRV serotype-14; experiment: Antirhinoviral HI-HeLa cell culture assay (XTT cell protection), HRV-14; type: cell-based, human rhinovirus; details: HRV serotype-14, HI-HeLa cells, m.o.i. 0.13, two days, XTT; read-out: EC50
Experimental: as §1, §2
(§3) All strains of human rhinovirus (HRV) for use in this assay were purchased from American Type Culture Collection (ATCC) except for HRV serotype-14, which was produced from the infectious cDNA clone constructed and supplied to Applicants by Dr. Robert Rueckert at the Institute for Molecular Virology, University of Wisconsin, Madison, Wis. HRV stocks were propagated, and viral assays were performed in HI-HeLa cells (ATCC). Cells were grown in Minimal Essential Medium, available from Life Technologies, with 10% fetal bovine serum.
(§4) The compounds were tested against control compounds WIN 51711, WIN 52084, and WIN 54954, all obtained from Sterling-Winthrop Pharmaceuticals, and control compound Pirodavir, obtained from Janssen Pharmaceuticals. Antiviral data obtained for the test compounds are shown in Table 2 where all data are for HRV serotype-14 unless otherwise noted in parentheses.

[3] = test system: HRV serotype 89; experiment: Antirhinoviral HI-HeLa cell culture assay (XTT cell protection), HRV-89; type: cell-based, human rhinovirus; details: HRV serotype 89, HI-HeLa cells
Experimental: as §1, §2, §3, §4

[4] = test system: HRV serotype 1A; experiment: Antirhinoviral HI-HeLa cell culture assay (XTT cell protection), HRV-1A; type: cell-based, human rhinovirus; details: HI-HeLa cells
Experimental: as §1, §2, §3, §4

[5] = target: T1, Recombinant Rhinovirus 3C protease serotype 14 (Human rhinovirus 14, UniProt P03303); experiment: biochemical
T1 construct: Recombinant Rhinovirus 3C proteases from serotypes 14, 16, and 2; made in house
T1 sequence (P03303 1538-1719): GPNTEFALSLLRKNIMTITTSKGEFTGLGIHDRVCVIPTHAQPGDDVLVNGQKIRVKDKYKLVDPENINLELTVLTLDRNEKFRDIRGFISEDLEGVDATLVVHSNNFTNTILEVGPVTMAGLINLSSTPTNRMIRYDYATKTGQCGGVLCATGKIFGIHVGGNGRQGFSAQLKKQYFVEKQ

[6] = target: Recombinant Rhinovirus 3C protease serotype 16 (Human rhinovirus 16, UniProt Q82122); type: biochemical
Sequence of Recombinant Rhinovirus 3C protease serotype 16 (Q82122 1511-1693): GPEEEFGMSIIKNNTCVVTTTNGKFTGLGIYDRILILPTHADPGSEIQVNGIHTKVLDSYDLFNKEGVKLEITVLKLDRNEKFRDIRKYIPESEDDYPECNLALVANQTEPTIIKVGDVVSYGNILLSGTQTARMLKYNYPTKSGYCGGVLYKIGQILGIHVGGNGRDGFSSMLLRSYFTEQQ
Experimental: Stock solutions (50 mM, in DMSO) of various compounds were prepared; dilutions were in the same solvent. […] Assays contained 2% DMSO, 50 mM tris pH 7.6, 1 mM EDTA, a compound at the indicated concentrations, approximately 1 μM substrate, and 50-100 nM protease. […] The kobs/I values were obtained from reactions initiated by addition of enzyme rather than substrate. RVP activity is measured in the fluorescence resonance energy transfer assay. […] In the uncleavaed peptide, the EDANS fluorescence was quenched by the proximal DABCYL moiety. When the peptide was cleaved, the quenching was relieved, and activity was measured as an increase in fluorescence signal.
In the above table, all data are for RVP serotype-14 unless otherwise noted in parentheses. All strains of human rhinovirus (HRV) were purchased from American Type Culture Collection (ATCC) except for serotype 14, which was produced from the infectious cDNA clone constructed and supplied to Applicants by Dr. Robert Rueckert at the Institute for Molecular Virology, University of Wisconsin, Madison, Wis. The column designated INHIB represents the percent inhibition at 10 minute preincubation with 50 nM RVP prior to addition of substrate. The data in the column designated kobs/I was measured from progress curves enzyme start experiments.

[7] = target: T2, Recombinant Rhinovirus 3C protease serotype 2 (Human rhinovirus 2, UniProt P04936); type: biochemical
T2 construct: Recombinant Rhinovirus 3C proteases from serotypes 14, 16, and 2; made in house
T2 sequence (P04936 1508-1690): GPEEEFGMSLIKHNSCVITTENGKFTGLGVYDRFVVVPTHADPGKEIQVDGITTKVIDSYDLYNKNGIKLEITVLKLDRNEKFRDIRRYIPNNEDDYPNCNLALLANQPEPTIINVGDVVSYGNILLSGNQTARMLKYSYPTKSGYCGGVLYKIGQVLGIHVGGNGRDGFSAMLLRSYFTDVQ

[8] = test system: HRV serotype 10; experiment: Antirhinoviral HI-HeLa cell culture assay (XTT cell protection), HRV-10; type: cell-based, human rhinovirus; details: HRV serotype 10, HI-HeLa cells
Experimental: as §1, §2, §3, §4

[9] = test system: HRV serotype 39; experiment: Antirhinoviral HI-HeLa cell culture assay (XTT cell protection), HRV-39; type: cell-based, human rhinovirus; details: HRV serotype 39, HI-HeLa cells
Experimental: as §1, §2, §3, §4

[10] = test system: HRV serotype 16; experiment: Antirhinoviral HI-HeLa cell culture assay (XTT cell protection), HRV-16; type: cell-based, human rhinovirus; details: HRV serotype 16, HI-HeLa cells
Experimental: as §1, §2, §3, §4

[11] = mock-infected HI-HeLa cells, line for HRV serotype 1A, read-out: CC50
[12] = mock-infected HI-HeLa cells, line for HRV serotype 2, read-out: CC50
[13] = mock-infected HI-HeLa cells, line for HRV serotype 10, read-out: CC50
[14] = mock-infected HI-HeLa cells, line for HRV serotype 16, read-out: CC50
[15] = mock-infected HI-HeLa cells, line for HRV serotype 39, read-out: CC50
[16] = mock-infected HI-HeLa cells, line for HRV serotype 89, read-out: CC50
[17] = mock-infected HI-HeLa cells, line for HRV serotype-14, read-out: CC50
[18] = RVP serotype-14, progress curves, enzyme start experiments

CCOC(=O)/C=C/C(CCC(N)=O)NC(=O)C(CC(=O)C(NC(=O)SC1CCCC1)C(C)C)Cc1ccc(F)cc1 (stereo not shown) [Compound 14]
CC50 [1, 11]: > 10 µM
CC50 [1, 12]: > 10 µM
CC50 [1, 13]: > 10 µM
CC50 [1, 14]: > 10 µM
CC50 [1, 15]: > 10 µM
CC50 [1, 16]: > 10 µM
CC50 [1, 17]: > 10 µM
EC50 [2]: 0.02 µM
EC50 [3]: 0.08 µM
EC50 [4]: 0.17 µM

CCOC(=O)/C=C/C(CCC(N)=O)NC(=O)C(CC(=O)C(Cc1ccccc1)NC(=O)SC1CCCC1)Cc1ccc(C)cc1 [Compound 12, Ethyl-3-(CyPentylSCO-L-PheΨ[COCH2]-L-(p-CH3)Phe-L-Gln)-E-Propenoate]
CC50 [1, 17]: > 1 µM
kobs/I [5, 18]: 404,000 M^−1sec^−1
EC50 [2]: 0.14 µM

CCOC(=O)/C=C/[C@H](CCC(N)=O)NC(=O)[C@@H](CC(=O)[C@H](CC(C)C)NC(=O)SC1CCCC1)Cc1ccccc1 [Compound 8, Ethyl-3-(CyPentylSCO-L-LeuΨ[COCH2]-L-Phe-L-Gln)-E-Propenoate]
kobs/I [6]: 14,200 M^−1sec^−1
kobs/I [5]: 55,700 M^−1sec^−1
kobs/I [7]: 7,000 M^−1sec^−1
kobs/I ([7]; RVP serotype 2, progress curves, enzyme start experiments): 7,000 M^−1sec^−1

Cc1cc(CCCCCCCOc2ccc(C3=N[C@@H](C)CO3)cc2)on1 [WIN 52084, reference compound]
CC50 [1, 17]: > 10 µM
EC50 [2]: 0.07 µM

CCOC(=O)/C=C/C(CCC(N)=O)NC(=O)C(CC(=O)C(NC(=O)SC1CCCC1)C(C)C)Cc1ccc(C(F)(F)F)cc1 [Compound 16, Ethyl-3-(CyPentylSCO-L-ValΨ[COCH2]-L-(p-CF3)Phe-L-Gln)-E-Propenoate]
CC50 [1, 11]: > 3 µM
CC50 [1, 12]: > 3 µM
CC50 [1, 13]: > 3 µM
CC50 [1, 14]: > 3 µM
CC50 [1, 15]: > 3 µM
CC50 [1, 16]: > 3 µM
CC50 [1, 17]: > 3 µM
EC50 [8]: 0.15 µM
EC50 [9]: 0.2 µM
EC50 [2]: 0.05 µM
EC50 [3]: 0.08 µM

CCOC(=O)/C=C/C(CCC(N)=O)NC(=O)C(CC(=O)C(NC(=O)SC1CCCC1)C(C)(C)C)Cc1ccccc1 [Compound 22, Ethyl-3-(CyPentylSCO-L-tert-LeuΨ[COCH2]-L-Phe-L-Gln)-E-Propenoate]
CC50 [1, 11]: > 32 µM
CC50 [1, 12]: > 32 µM
CC50 [1, 13]: > 32 µM
CC50 [1, 14]: > 32 µM
CC50 [1, 15]: > 32 µM
CC50 [1, 16]: > 32 µM
CC50 [1, 17]: > 32 µM
EC50 [10]: 0.4 µM
EC50 [9]: 0.4 µM
EC50 [2]: 0.05 µM
EC50 [4]: 0.43 µM

CCOC(=O)/C=C/C(CCC(N)=O)NC(=O)C(CC(=O)C(NC(=O)SCc1ccccc1)C(C)C)Cc1ccccc1 [Compound 5, Ethyl-3-(BnSCO-L-ValΨ[COCH2]-L-Phe-L-Gln)-E-Propenoate]
kobs/I [6]: 89,700 M^−1sec^−1
kobs/I [5]: 500,000 M^−1sec^−1
kobs/I [7]: 26,900 M^−1sec^−1

CCOC(=O)/C=C/[C@H](CCC(N)=O)NC(=O)[C@@H](CC(=O)[C@@H](NC(=O)SCC)C(C)C)Cc1ccccc1 [Compound 4, Ethyl-3-(EtSCO-L-ValΨ[COCH2]-L-Phe-L-Gln)-E-Propenoate]
CC50 [1, 17]: > 320 µM
kobs/I [6]: 34,600 M^−1sec^−1
kobs/I [5]: 180,000 M^−1sec^−1
kobs/I [7]: 17,800 M^−1sec^−1

CCOC(=O)/C=C/[C@H](CCC(N)=O)NC(=O)[C@@H](CC(=O)[C@@H](NC(=O)SCC)C(C)C)Cc1ccc(C)cc1 [Compound 10, Ethyl-3-(EtSCO-L-ValΨ[COCH2]-L-(p-CH3)Phe-L-Gln)-E-Propenoate]
CC50 [1, 12]: > 1 µM
kobs/I [5]: 440,000 M^−1sec^−1

CCOC(=O)/C=C/[C@H](CCC(N)=O)NC(=O)[C@@H](CC(=O)[C@@H](NC(=O)SCC)C(C)C)Cc1ccc(F)cc1 [Compound 13, Ethyl-3-(EtSCO-L-ValΨ[COCH2]-L-(p-F)Phe-L-Gln)-E-Propenoate]
CC50 [1, 17]: > 3 µM

CCOC(=O)/C=C/C(CCC(N)=O)NC(=O)C(CC(=O)C(CC(C)C)NC(=O)OCc1ccccc1)Cc1ccccc1 [Compound 1, Ethyl-3-(CBZ-L-LeuΨ[COCH2]-L-Phe-L-Gln)-E-Propenoate]
CC50 [1, 17]: > 320 µM

CC(=O)N1CC/C(=C\C(CCC(N)=O)NC(=O)C(CC(=O)C(NC(=O)SC2CCCC2)C(C)C)Cc2ccc(C)cc2)C1=O [Compound 17, [CyPentylSCO-L-ValΨ[COCH2]-L-(p-CH3)Phe-L-Gln]-E-1-Acetyl-3-methylene-pyrrolidin-2-one]
CC50 [1, 12]: > 10 µM
CC50 [1, 15]: > 10 µM
CC50 [1, 17]: > 10 µM
EC50 [9]: 0.48 µM
EC50 [2]: 0.027 µM

CCOC(=O)/C=C/C(CCC(N)=O)NC(=O)C(CC(=O)C(CC(C)C)NC(=O)SCc1ccccc1)Cc1ccccc1 [Compound 6, Ethyl-3-(BnSCO-L-LeuΨ[COCH2]-L-Phe-L-Gln)-E-Propenoate]
kobs/I [6]: 23,230 M^−1sec^−1
kobs/I [5]: 87,600 M^−1sec^−1
kobs/I [7]: 13,350 M^−1sec^−1

CCOC(=O)/C=C/C(CCC(N)=O)NC(=O)C(CC(=O)C(NC(=O)SC1CCCC1)C(C)C)Cc1ccc(C)cc1 [Compound 11, Ethyl-3-(CyPentylSCO-L-ValΨ[COCH2]-L-(p-CH3)Phe-L-Gln)-E-Propenoate]
CC50 [1, 11]: > 3 µM
CC50 [1, 12]: > 3 µM
CC50 [1, 13]: > 3 µM
CC50 [1, 14]: > 3 µM
CC50 [1, 15]: > 3 µM
kobs/I [5]: 850,000 M^−1sec^−1

CCOC(=O)/C=C/C(CCC(N)=O)NC(=O)C(CC(=O)C(Cc1ccccc1)NC(=O)SC1CCCC1)Cc1ccc(F)cc1 [Compound 18, Ethyl-3-(CyPentylSCO-L-PheΨ[COCH2]-L-(p-F)Phe-L-Gln)-E-Propenoate]
CC50 [1, 17]: > 3 µM
kobs/I [5, 18]: 127,400 M^−1sec^−1
EC50 [2]: 0.48 µM

CCOC(=O)/C=C/[C@H](CCC(N)=O)NC(=O)[C@@H](CC(=O)[C@H](CC(C)C)NC(=O)SCC)Cc1ccccc1 [Compound 2, Ethyl-3-(EtSCO-L-LeuΨ[COCH2]-L-Phe-L-Gln)-E-Propenoate]
CC50 [1, 12]: > 320 µM
kobs/I [6]: 10,410 M^−1sec^−1
kobs/I [5]: 47,000 M^−1sec^−1
kobs/I [7]: 4,600 M^−1sec^−1

CCOC(=O)/C=C/C(CCC(N)=O)NC(=O)C(CC(=O)C(NC(=O)CC1CCCC1)C(C)C)Cc1ccc(C)cc1 (stereo not shown) [Compound 23]
CC50 [1]: > 10 µM
kobs/I [5, 18]: 36,500 M^−1sec^−1
EC50 [2]: 20.9 µM

Ethyl-3-(CyPentylSCO-L-CyhexΨ[COCH2]-L-(p-F)Phe-L-Gln)-E-Propenoate [Compound 24]
CC50 [1, 17]: > 3 µM

CCOC(=O)/C=C/[C@H](CCC(N)=O)NC(=O)[C@@H](CC(=O)[C@@H](NC(=O)SCC)C(C)C)Cc1ccc(C(F)(F)F)cc1 [Compound 15, Ethyl-3-(EtSCO-L-ValΨ[COCH2]-L-(p-CF3)Phe-L-Gln)-E-Propenoate]
CC50 [1, 17]: > 1 µM
kobs/I [5, 18]: 127,000 M^−1sec^−1
EC50 [2]: 0.063 µM

Cc1cc(CCCCCCCOc2ccc(C3=NCCO3)cc2)on1 [WIN 51711, reference compound]
CC50 [1, 17]: > 60 µM
EC50 [2]: 0.78 µM
